According to patent publication US8609656B2, “Heteroarylphenylurea derivative” (Chugai Seiyaku Kabushiki Kaisha, priority 2004, dated 2013):
Values after ≈ are worked out from the molar mass of the structure shown.

Key:
[1] = Solubility to fasted state simulated intestinal fluid; type: physicochemical; conditions: fassif, kinetic from dmso stock, fasted state simulated intestinal fluid (pH 6.5), 37° C.
Method in brief: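 DMSO stock of compound added to FaSSIF (pH 6.5; taurocholate, phosphatidylcholine, KH2PO4, KCl) and shaken 20 h at 37° C. Filtrate diluted with ethanol:water 2:1 and read by UV absorbance; solubility taken as sample-to-standard absorbance ratio (blank-corrected) × 165 μM standard.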

[2] = biological target: T1, recombinant Raf-1 protein (activated type GST-Raf-1) (Homo sapiens, UniProt P04049); assay: RAF-1 enzyme inhibition test (33P incorporation into MEK 1 protein); type: biochemical; conditions: 10 μM ATP, GST-MEK1 substrate, 30° C., 45 minutes; read-out: Raf-1 Enzyme Inhibition, 50% Enzyme Inhibition Concentration (IC50 value)
T1 construct: fused on or other part: GST tag fused to Raf-1
T1 sequence (P04049 349-648 limits assumed): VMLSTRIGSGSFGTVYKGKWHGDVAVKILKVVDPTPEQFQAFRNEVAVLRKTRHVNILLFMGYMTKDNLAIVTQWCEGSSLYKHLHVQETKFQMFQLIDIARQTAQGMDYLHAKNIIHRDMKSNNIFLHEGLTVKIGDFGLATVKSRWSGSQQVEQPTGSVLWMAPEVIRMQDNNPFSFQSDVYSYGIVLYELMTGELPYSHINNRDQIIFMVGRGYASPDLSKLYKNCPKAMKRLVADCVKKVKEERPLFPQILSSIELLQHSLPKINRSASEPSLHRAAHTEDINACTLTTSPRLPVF
Method in brief: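 GST-MEK1 (2 μg) was phosphorylated by activated GST-Raf-1 (25 ng) with 10 μM ATP spiked with 33P-ATP, in Tris-HCl pH 7.5 with DTT, NaCl, KF, vanadate and 10 mM MgCl2, for 45 min at 30° C. Protein was precipitated with TCA and radioactivity counted on filters. IC50 was calculated from inhibition relative to a compound-free reference.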

[3] = system: human colorectal cancer cell strain HCT 116; assay: Antitumor test, HCT 116 inoculated subcutaneously in nude mouse; type: in vivo, male Balb/c nude mouse; conditions: dosage 200 mg/kg, orally one time a day for 5 days, final administration day
Procedure: (§1) With respect to the compounds relating to the present invention and the known compound (BAY 43-9006), cell growth inhibition activity was measured.
(§2) A cell suspension of a human colorectal cancer cell strain HCT 116 was prepared with a Hunks' balanced salt solution. Its 5.0×10^6 were inoculated subcutaneously to the flank of each male Balb/c nude mouse. When the mean volume of a tumor reached 200 to 250 mm^3, a sample compound was orally administered one time a day for 5 days. The tumor volume was calculated from the calculation formula: 0.5×(minor diameter)^2×(major diameter), and the tumor growth inhibition ratio was calculated from the ratio of the tumor growth of the sample administered group to that of a reference group. The dosage in the antitumor test, the tumor growth inhibition ratio on the final administration day and the reduction in body weight on day 7 after starting administration are shown in Tables 6-1 and 6-2

[4] = system: VEGF dependent HUVEC; assay: Cell growth inhibition test, VEGF dependent HUVEC; type: cell-based; conditions: Homo sapiens, 20 ng/mL of VEGF, 72 hours, WST-1, read-out: HUVEC (VEGF Dependence), 50% Growth Inhibition Concentration (IC50 value)
Procedure: (§3) Cell Growth Inhibition Test
as §1
(§4) A sample compound was in-series diluted with dimethyl sulfoxide, and then was 1/50 diluted with a Ca^2+- and Mg^2+-free phosphate-bufferized physiological saline and its 20 μL was poured to a 96-well plate. […] Each of these cell suspensions was dividedly poured to the sample added plate in 180 μL/well and cultured in a 5% carbon dioxide incubator at 37° C. After 72 hours, 20 μL of WST-(HCT 116, a product of Dojin) or WST-1 (HUVEC, a product of Roche diagnostics) was added thereto to each well and the absorbance at 450 nm (reference wavelength: 650 nm) was measured. From the growth inhibition ratio of addition of the sample compound to no-addition of the sample compound as a reference, the 50% growth inhibition IC50) of the sample compound was calculated.
(§5) With respect to the group of representative compounds of the present invention, the IC50 values of HCT 116 and HUVEC (VEGF nondependent growth and VEGF dependent growth) are shown in Tables 5-1 to 5-3.

[5] = Antitumor test, reduction in body weight; type: in vivo, male Balb/c nude mouse; conditions: dosage 200 mg/kg, orally one time a day for 5 days, day 7 after starting administration
Procedure: as §2

[6] = system: VEGF non-dependent human umbilical vein endothelial cells (HUVEC); assay: Cell growth inhibition test, VEGF non-dependent HUVEC; type: cell-based; conditions: 72 hours, WST-1, read-out: HUVEC (VEGF Nondependence), 50% Growth Inhibition Concentration (IC50 value)
Procedure: as §3, §1, §4, §5

[7] = system: human colorectal cancer cell strain HCT 116; assay: Cell growth inhibition test, HCT 116; type: cell-based; conditions: 72 hours, read-out: HCT116, 50% Growth Inhibition Concentration (IC50 value)
Procedure: as §3, §1, §4, §5

Structure (SMILES) | solubility at 20 h [1] | IC50 [2] | Tumor Inhibition Ratio (%) [3] | IC50 [4] | Body Weight Reduction ratio (%) [5] | IC50 [6] | IC50 [7]
CCCNC(=O)Nc1ncnc2c1ncn2-c1ccc(NC(=O)Nc2ccc(Cl)c(C(F)(F)F)c2)cc1 [Table 1, Compound 119, 1-(9-{4-[3-(4-Chloro-3-(tri-fluoromethyl)phenyl)ureido]-phenyl}-9H-purin-6-yl)-3-propylurea] | 0.039 mg/mL (≈ 73.2 µM) | 0.013 µM | 89% | 0.064 µM | 8.5% | 0.97 µM | 3.7 µM
CNc1ncnc2c1ncn2-c1ccc(NC(=O)Nc2cc(CN3CCN(C)CC3)cc(C(F)(F)F)c2)cc1 [Table 2, Compound 25, 1-[4-(6-(Methylamino)purin-9-yl)phenyl]-3-[3-(4-methyl-piperazin-1-ylmethyl)-5-(tri-fluoromethyl)phenyl]urea] | 0.158 mg/mL (≈ 293 µM) | 0.11 µM | 80% | 0.28 µM | 2.7% | 1.7 µM | 1.7 µM
